Calls of active or inactive are those of the source. The rule behind the calls is not given here.
How the values were obtained:
[1] = biological target: T1, Porphobilinogen deaminase (Homo sapiens) (UniProt P08397); conditions: at 100 µM
T1 sequence (whole entry): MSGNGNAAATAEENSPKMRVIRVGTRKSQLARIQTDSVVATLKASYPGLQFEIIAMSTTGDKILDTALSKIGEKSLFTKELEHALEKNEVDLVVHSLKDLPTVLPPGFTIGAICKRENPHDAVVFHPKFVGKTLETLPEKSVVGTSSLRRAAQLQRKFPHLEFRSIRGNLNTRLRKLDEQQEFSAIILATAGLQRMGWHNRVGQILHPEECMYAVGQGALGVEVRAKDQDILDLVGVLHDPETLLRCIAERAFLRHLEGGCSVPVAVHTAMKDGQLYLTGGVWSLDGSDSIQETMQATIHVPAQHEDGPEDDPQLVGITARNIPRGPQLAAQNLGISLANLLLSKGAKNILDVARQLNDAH
Description: Compound was evaluated for the inhibition of human HMBS at 100uM

[2] = biological target: T2, Ferrochelatase, mitochondrial (Homo sapiens) (UniProt P22830); conditions: at 10 µM
T2 sequence (whole entry): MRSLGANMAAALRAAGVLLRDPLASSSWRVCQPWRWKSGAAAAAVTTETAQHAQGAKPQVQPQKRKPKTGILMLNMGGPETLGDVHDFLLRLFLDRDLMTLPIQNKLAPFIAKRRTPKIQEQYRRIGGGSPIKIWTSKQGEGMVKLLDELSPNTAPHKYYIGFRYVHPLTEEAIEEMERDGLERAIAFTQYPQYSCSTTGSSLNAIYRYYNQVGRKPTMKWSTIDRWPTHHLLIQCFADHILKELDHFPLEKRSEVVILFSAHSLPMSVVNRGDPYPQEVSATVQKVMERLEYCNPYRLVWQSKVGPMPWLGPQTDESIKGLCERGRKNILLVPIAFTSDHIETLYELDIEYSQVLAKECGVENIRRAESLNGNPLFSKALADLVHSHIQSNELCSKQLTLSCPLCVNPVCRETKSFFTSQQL
Description: Compound was evaluated for the inhibition of human FECH at 10uM

| SMILES | inhibition [1] | inhibition [2] |
| --- | --- | --- |
| O=C(NCc1ccco1)N1CCN(Cc2ccc(Cl)s2)CC1 | inactive | inactive |
| COc1cccc(OC)c1C(=O)Nc1ccc(Cl)c(-c2nc3ccccc3s2)c1 | inactive | inactive |
| Cc1nn(C)c(C)c1NS(=O)(=O)c1c(Cl)cc(-c2ccnc(N3CCNCC3)c2)cc1Cl | inactive | inactive |
| NCC(c1cccs1)S(=O)(=O)c1ccccc1 (configuration not stated) | inactive | inactive |
| CC(C)n1nc(-c2cc3c(Cl)cccc3[nH]2)c2c(N)ncnc21 | inactive | inactive |
| Nc1ncnc2[nH]nc(Cc3cccc4ccccc34)c12 | inactive | inactive |
| COc1cc(C2=NCCN2)cc2cc(-c3ccc(C4=NCCN4)cc3)oc12 | inactive | inactive |
| COc1ccccc1OCCCCn1c(C2CC2)nc2ccccc21 | inactive | inactive |
| N#Cc1ccc(-c2ccc(OCC(N)=O)cc2)cc1 | inactive | inactive |
| CCc1nc2ccccc2n1CC(O)COc1cc(C)ccc1Cl (configuration not stated) | inactive | inactive |
| O=C(C1CCN(c2cc(-n3cccc3)ncn2)CC1)N1CCc2ccccc2C1 | inactive | inactive |
| c1ccc(C[C@@H]2CN(c3nccc(Oc4ccc(-n5ccnc5)cc4)n3)CCN2)cc1 | inactive | inactive |
| Oc1c(I)cc(I)c2cccnc12 | inactive | inactive |
| Cc1ccccc1CN1CCC(O)(c2ccc(Cl)c(C(F)(F)F)c2)CC1 | inactive | inactive |
| Brc1c(-c2ccc3c(c2)OCO3)nc2ncccn12 | inactive | inactive |
| N=C(N)Nc1ccc(-c2ccc(-c3ccc(N=C(N)N)c(Cl)c3)o2)cc1Cl | inactive | inactive |
| c1ccc(Oc2ccc(-c3cncc(-c4ccc5[nH]ccc5c4)n3)cc2)cc1 | inactive | inactive |
| CC1=Nc2ccc(Cl)cc2C(c2ccccc2)N1CCNC(=O)CN(C)C (configuration not stated) | inactive | inactive |
| Cc1ccc(C(=O)Nc2ccc(S(=O)(=O)O)c3cc(S(=O)(=O)O)cc(S(=O)(=O)O)c23)cc1NC(=O)c1cccc(NC(=O)Nc2cccc(C(=O)Nc3cc(C(=O)Nc4ccc(S(=O)(=O)O)c5cc(S(=O)(=O)O)cc(S(=O)(=O)O)c45)ccc3C)c2)c1 | inactive | inactive |
| O=C1[C@@H](Oc2ccccc2)[C@@H](c2ccc(Cl)cc2)N1CCn1cnc2c(NCc3ccccc3)ncnc21 | inactive | inactive |
| Cc1cc(C)n(-c2ccc(NC(=O)C3CCN(Cc4cnc(C)s4)CC3)cc2)n1 | inactive | inactive |
| COC(=O)C1=C(C)NC(C)=C(C(=O)OC(C)C)C1c1cccc2nonc12 (configuration not stated) | inactive | inactive |

| SMILES | inhibition [1] | inhibition [2] |
| --- | --- | --- |
| c1ccc(-c2cc(N3CCCCC3)c3ccccc3n2)nc1 | inactive | inactive |
| CCOC(=O)c1noc(N)c1-c1ccccc1 | inactive | inactive |
| O=C(C1CCCCC1)N1CC(=O)N2CCc3ccccc3C2C1 (configuration not stated) | inactive | inactive |
| COc1cc(C(F)(F)F)nc2ccc(C)c(N)c12 | inactive | inactive |
| NCCC(O)C(=O)N[C@@H]1C[C@H](N)[C@@H](OC2O[C@H](CN)[C@@H](O)[C@H](O)[C@H]2O)[C@H](O)C1OC1O[C@H](CO)[C@@H](O)[C@H](N)[C@H]1O (some centres not stated) | inactive | inactive |
| COc1ccc(CN2CCOc3ccc(C(C)(O)CN(C)C)cc3C2)cc1C (configuration not stated) | inactive | inactive |
| Cc1nn2c(=O)c3c([nH]c2c1-c1ccc(Cl)cc1)CCCC3 | inactive | inactive |
| CCCCc1ccc(NC(=O)Nc2ccc(O[C@H]3CCCC[C@@H]3N(C)c3ccccc3)c(F)c2)cc1 | inactive | inactive |
| COc1ccc(N(CCc2cccc(C)n2)C(C)=O)cc1 | inactive | inactive |
| OCc1ccc(-c2cncc(Nc3cccc(Cl)c3)c2)cc1 | inactive | inactive |
| CCOc1ccc2cc(-c3nn(C(C)(C)C)c(N)c3C(N)=O)cnc2c1 | inactive | inactive |
| CCC(Sc1nc2ccccc2o1)C(=O)Nc1nnc(C)s1 (configuration not stated) | inactive | inactive |
| Cn1ccnc1CNCCS(=O)(=O)c1cccc(Nc2ccc(-c3cccc(F)c3)cn2)c1 | inactive | inactive |
| CCc1ccc([C@@H]2C[C@H](C(F)(F)F)n3ncc(C(=O)NCc4ccc(OC)cc4)c3N2)cc1 | inactive | inactive |
| Cc1cc(C)c2cc(C(=O)NC3CCCCCCC3)[nH]c2c1 | inactive | inactive |
| Cc1nc(-c2ccccn2)nc(N(C)CCc2ccccc2)c1Cl | inactive | inactive |
| COc1ccc(C2=NCCN2)cc1-c1cn(-c2cccc(C3=NCCN3)c2)nn1 | inactive | inactive |
| COc1ccc(N(CCc2cccc(C)n2)C(=O)C2CCCCC2)cc1 | inactive | inactive |
| O=C(NCCc1c[nH]c2ccccc12)c1cc2ccccc2oc1=O | inactive | inactive |
| CCOc1ccccc1C(=O)Nc1cccc(-c2nc3ncccn3c2C)c1 | inactive | inactive |
| O=C(NCCc1ccn(-c2ccccc2)n1)C1CCCCC1 | inactive | inactive |
| CC(=O)NC[C@@H]1CN(c2ccc(N3CCOCC3)c(F)c2)C(=O)O1 | inactive | inactive |

| SMILES | inhibition [1] | inhibition [2] |
| --- | --- | --- |
| CC(C)(C)n1nc(Cc2ccc(F)c(Cl)c2)c2c(N)ncnc21 | inactive | inactive |
| COc1ccc(C2=NN(C3CCCCCC3)C(=O)C2(C)C)cc1OCCCCOc1ccc(-c2nn[nH]n2)cc1 | inactive | inactive |
| CC(C)=CCC/C(C)=C\CNCCNC1C2CC3CC(C2)CC1C3 (configuration not stated) | inactive | inactive |
| CC(C)C(Oc1cccc2ccccc12)C(=O)O (configuration not stated) | inactive | inactive |
| CC1=Nc2ccc(Cl)cc2C(O)(c2ccc(C)cc2)N1CCN1CCCCC1 (configuration not stated) | inactive | inactive |
| COC(=O)Nc1nc2cc(C(=O)c3ccccc3)ccc2[nH]1 | inactive | inactive |
| CO[C@@H](C(=O)N1Cc2[nH]nc(NC(=O)c3ccc(N4CCN(C)CC4)cc3)c2C1)c1ccccc1 | inactive | inactive |
| CC(C)C(C(=O)Nc1ccc(S(=O)(=O)N(C)C)cc1)c1ccc(Cl)cc1 (configuration not stated) | inactive | inactive |
| CC(=O)N1CCN(c2ccc(Oc3ccc(Cl)cc3O)cc2)CC1 | inactive | inactive |
| CC(=O)N(CCN(C(=O)c1ccc(F)cc1)c1ccccc1)c1ccccc1 | inactive | inactive |
| Cc1nn(C(=O)Nc2cccc(C(F)(F)F)c2)c(C)c1Sc1ncccn1 | inactive | inactive |
| c1ccc(Oc2ccc(-c3cc(CN4CCOCC4)[nH]n3)cc2)cc1 | inactive | inactive |
| Clc1ccc(Cl)c(CO[C@H]2CCCC[C@@H]2n2ccnc2)c1 | inactive | inactive |
| Nc1cccnc1Nc1ccc(Cl)cc1 | inactive | inactive |
| Cn1ncc2c(N3CCOCC3)nc(NCCc3c[nH]c4ccccc34)nc21 | inactive | inactive |
| Cc1ccc(NC(=O)c2cc(S(=O)(=O)NC(C)(C)C)ccc2C)nc1 | inactive | inactive |
| Cc1cc2nc(NC(=O)C(C)(C)C)nc(Cl)c2n1Cc1ccc(Cl)cc1 | inactive | inactive |
| COc1ccccc1CNC(=O)c1cc(C2CC2)nc2c1cnn2C(C)C | inactive | inactive |
| CC1CCCN(C(=O)C(C)Nc2cc(Cl)ccc2N2CCOCC2)C1 (configuration not stated) | inactive | inactive |
| COc1cc(OC)cc(C(=O)NCC2Cc3cc(Cl)cc(-c4ccncc4)c3O2)c1 (configuration not stated) | inactive | inactive |
| O=C(Nc1cccnc1)c1c(O)c2cccc3c2n(c1=O)CC3 | inactive | inactive |
| N#Cc1nc(-c2ccccc2F)oc1NCCc1ccccc1 | inactive | inactive |

— ChEMBL document CHEMBL3987221, “The Australian National University Dept Of Immunology Pathogen Box Compounds Screened” (2018)
